# Measured values as given in the Kinase Knowledgebase extract (Sharma et al. 2016).
# Legend:
# [1] = target: EGFR (UniProt P00533); settings: concentration not given here
# [2] = target: EGFR (human) (UniProt P00533); settings: for IC50: mda-mb-468; for inhibition: mda-mb-468, concentration not given here
# Sequence of EGFR (human) (P00533 whole entry, looked up): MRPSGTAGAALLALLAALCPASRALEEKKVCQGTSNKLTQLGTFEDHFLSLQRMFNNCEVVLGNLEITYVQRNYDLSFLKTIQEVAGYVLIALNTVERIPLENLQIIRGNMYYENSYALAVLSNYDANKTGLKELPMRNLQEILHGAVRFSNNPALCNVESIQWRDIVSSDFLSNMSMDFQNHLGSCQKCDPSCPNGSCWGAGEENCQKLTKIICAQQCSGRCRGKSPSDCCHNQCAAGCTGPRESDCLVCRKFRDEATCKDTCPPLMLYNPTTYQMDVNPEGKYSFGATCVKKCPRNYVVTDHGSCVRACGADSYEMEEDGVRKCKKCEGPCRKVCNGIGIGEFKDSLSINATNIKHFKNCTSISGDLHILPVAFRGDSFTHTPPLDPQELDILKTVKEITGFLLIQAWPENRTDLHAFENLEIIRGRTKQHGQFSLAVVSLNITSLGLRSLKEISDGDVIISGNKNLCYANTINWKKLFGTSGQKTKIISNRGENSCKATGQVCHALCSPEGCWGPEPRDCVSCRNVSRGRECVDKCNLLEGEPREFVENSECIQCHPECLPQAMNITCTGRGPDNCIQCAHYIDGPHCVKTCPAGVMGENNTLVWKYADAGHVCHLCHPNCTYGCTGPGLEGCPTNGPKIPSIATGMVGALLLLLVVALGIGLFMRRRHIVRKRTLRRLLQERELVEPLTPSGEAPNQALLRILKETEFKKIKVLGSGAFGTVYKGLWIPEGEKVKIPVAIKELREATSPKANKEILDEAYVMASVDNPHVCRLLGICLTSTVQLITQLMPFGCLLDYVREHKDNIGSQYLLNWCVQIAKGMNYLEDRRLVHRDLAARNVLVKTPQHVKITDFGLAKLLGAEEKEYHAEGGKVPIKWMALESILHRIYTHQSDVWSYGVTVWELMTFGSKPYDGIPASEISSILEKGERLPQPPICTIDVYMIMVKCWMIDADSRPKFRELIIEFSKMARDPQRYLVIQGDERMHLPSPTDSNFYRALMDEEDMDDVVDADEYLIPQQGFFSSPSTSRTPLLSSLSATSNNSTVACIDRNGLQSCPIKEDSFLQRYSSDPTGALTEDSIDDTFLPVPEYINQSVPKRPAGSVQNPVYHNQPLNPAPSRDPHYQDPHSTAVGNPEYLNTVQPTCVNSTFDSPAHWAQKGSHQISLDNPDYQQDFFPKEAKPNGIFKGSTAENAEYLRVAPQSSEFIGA
# Sequence of EGFR (P00533 whole entry, looked up): as above
Structure (SMILES),inhibition [1] [%],IC50 [2] [µM],inhibition [2] [%]
O=[N+]([O-])c1ccc(Nc2ccc(OCc3ccccc3)cc2)c2c(O)ncnc12,21.1,4.2,–
O=[N+]([O-])c1ccc(N2CCCC2)c2c(O)ncnc12,0,–,23.3
CSCC[C@@H](Nc1ccc([N+](=O)[O-])c2ncnc(O)c12)C(=O)O,5.6,–,19.9
O=[N+]([O-])c1ccc(Nc2ccc(Cl)cc2)c2c(O)ncnc12,18.3,–,28.6
CCOc1ccc([N+](=O)[O-])c2ncnc(O)c12,3.9,–,32.3
O=[N+]([O-])c1ccc(Nc2ccccc2)c2c(O)ncnc12,17.7,0.48,–
COc1ccc(Nc2ccc([N+](=O)[O-])c3ncnc(O)c23)cc1,12.2,< 0.01,75.5
COC(=O)C#Cc1ccc([N+](=O)[O-])cc1,28,–,–
COc1ccc([N+](=O)[O-])c2ncnc(O)c12,0,–,35.8
O=C(O)[C@H](Nc1ccc([N+](=O)[O-])c2ncnc(O)c12)c1ccccc1,6.5,–,29.2
Cc1cccc(Nc2ccc([N+](=O)[O-])c3ncnc(O)c23)c1,0,–,15.2
Nc1ccc(Nc2ccc([N+](=O)[O-])c3ncnc(O)c23)cc1,0,4,–
O=[N+]([O-])c1ccc(N2CC=CC2)c2c(O)ncnc12,7.9,–,34.6
O=[N+]([O-])c1ccc(NCc2ccccc2)c2c(O)ncnc12,5.2,–,12.1
O=[N+]([O-])c1ccc(Nc2cccc(Cl)c2)c2c(O)ncnc12,17.1,> 10,32.5
